In ChEMBL document CHEMBL4808180, “Identification of 2,2-Dimethylbutanoic Acid (HST5040), a Clinical Development Candidate for the Treatment of Propionic Acidemia and Methylmalonic Acidemia” (J Med Chem, 2021):
Activity calls are given as the source filed them. No cut-off for these calls is given here.

Assays:
[1] = Drug metabolism in Sprague-Dawley rat urine assessed as HST5040-glycine metabolite formation at 10 mg/kg administered as single dose by LC/MS analysis; assay type: ADME, organism-based; details: in vivo
[2] = Drug metabolism in Sprague-Dawley rat assessed as beta-oxidation by measuring phase1 metabolite formation at 10 mg/kg administered single dose using radiolabeled compound; assay type: ADME, organism-based; details: in vivo
[3] = target: T1, Solute carrier family 22 member 6 (Homo sapiens, UniProt Q4U2R8); assay: Inhibition of human OAT1 assessed as reduction in OAT1-mediated tenofovir transport
T1 sequence (Q4U2R8 whole entry): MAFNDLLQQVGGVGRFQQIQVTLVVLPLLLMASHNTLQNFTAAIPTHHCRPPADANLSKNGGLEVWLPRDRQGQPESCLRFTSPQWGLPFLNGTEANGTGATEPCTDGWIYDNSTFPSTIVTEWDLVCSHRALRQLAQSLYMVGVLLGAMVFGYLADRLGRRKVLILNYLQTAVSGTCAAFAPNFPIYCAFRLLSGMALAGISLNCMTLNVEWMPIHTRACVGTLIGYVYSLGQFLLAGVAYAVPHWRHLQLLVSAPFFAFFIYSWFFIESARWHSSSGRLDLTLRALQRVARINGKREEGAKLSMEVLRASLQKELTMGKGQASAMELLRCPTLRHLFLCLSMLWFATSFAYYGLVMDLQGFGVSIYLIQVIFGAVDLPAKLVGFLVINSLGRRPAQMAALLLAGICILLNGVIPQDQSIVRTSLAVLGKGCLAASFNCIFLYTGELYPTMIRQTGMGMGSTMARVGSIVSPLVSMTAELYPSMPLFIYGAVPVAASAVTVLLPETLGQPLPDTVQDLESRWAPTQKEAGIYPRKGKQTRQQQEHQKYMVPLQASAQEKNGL

[4] = Reduction of 2-Methylcitric acid in human hepatocytes derived from propionic acidemia patient at 30 uM pretreated for 30 mins followed by 13C-isoleucine addition and measured after 1 hr by MS/MS analysis relative to control; assay type: functional, Hepatocyte; set-up: scale not given: the % may be the effect or the level left; details: time 90 min, 1.5 h
[5] = Drug metabolism in mini-pig hepatocytes assessed as formation of 2,2-dimethylbutanoic acid-CoA incubated for 1 hrs by MS/MS analysis; assay type: ADME, cell-based, Sus scrofa domesticus; details: Sus scrofa, Hepatocyte
[6] = target: T2, Cytochrome P450 2B6 (Homo sapiens, UniProt P20813); assay: Direct inhibition of CYP2B6 in human liver microsomes using bupropion as substrate; assay type: ADME
T2 sequence (P20813 whole entry): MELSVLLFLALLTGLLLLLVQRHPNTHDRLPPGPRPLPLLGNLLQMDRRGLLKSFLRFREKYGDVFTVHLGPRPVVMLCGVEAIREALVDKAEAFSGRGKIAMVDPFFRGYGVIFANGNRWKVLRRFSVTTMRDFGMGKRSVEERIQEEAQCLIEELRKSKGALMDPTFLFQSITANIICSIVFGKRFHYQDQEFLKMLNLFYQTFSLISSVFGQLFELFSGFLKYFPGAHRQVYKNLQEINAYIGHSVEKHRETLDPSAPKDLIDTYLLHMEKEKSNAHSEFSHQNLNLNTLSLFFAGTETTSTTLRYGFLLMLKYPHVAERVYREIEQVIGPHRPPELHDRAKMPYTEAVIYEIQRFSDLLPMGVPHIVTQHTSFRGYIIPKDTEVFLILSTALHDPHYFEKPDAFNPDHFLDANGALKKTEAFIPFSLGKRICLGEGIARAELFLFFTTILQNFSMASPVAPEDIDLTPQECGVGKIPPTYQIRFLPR

[7] = target: T3, OATP1B3 (Homo sapiens, UniProt Q9NPD5); assay: Inhibition of human OATP1B3 assessed as reduction in OATP1B3-mediated E217betaG transport at 14900 uM relative to control; details: not told, probe E217betaG
T3 sequence (Q9NPD5 whole entry): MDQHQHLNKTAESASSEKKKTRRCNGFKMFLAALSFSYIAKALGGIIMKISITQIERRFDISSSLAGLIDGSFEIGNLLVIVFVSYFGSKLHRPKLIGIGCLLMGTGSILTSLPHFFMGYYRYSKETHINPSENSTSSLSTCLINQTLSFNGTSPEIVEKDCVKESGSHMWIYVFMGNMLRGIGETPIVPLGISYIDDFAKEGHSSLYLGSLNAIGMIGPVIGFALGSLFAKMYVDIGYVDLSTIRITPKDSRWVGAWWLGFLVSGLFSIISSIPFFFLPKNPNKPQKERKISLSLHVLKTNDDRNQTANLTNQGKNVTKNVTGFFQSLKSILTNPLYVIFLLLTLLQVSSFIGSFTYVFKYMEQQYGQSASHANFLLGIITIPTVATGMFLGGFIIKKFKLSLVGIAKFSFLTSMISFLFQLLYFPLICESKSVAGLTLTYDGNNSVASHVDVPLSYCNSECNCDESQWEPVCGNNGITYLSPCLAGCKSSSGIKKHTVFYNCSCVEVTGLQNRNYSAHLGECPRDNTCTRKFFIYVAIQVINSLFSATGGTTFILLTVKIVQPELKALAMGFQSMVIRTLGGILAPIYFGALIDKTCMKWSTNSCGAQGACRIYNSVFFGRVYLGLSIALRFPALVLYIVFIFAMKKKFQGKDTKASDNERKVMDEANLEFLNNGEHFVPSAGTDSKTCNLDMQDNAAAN

[8] = Solubility in pH 7-buffered water; assay type: physicochemical
[9] = target: Solute carrier family 22 member 2 (Homo sapiens) (UniProt O15244); assay: Inhibition of human OCT2 assessed as reduction in OCT2-mediated metformin transport at 14900 uM relative to control
[10] = Oral bioavailability in CD1 mouse at 30 mg/kg; assay type: ADME, organism-based; details: in vivo
[11] = Reduction of acetyl carnitine in human hepatocytes derived from methylmalonic acidemia patient at 30 uM pretreated for 30 mins followed by 13C-isoleucine addition and measured after 1 hr by MS/MS analysis; assay type: functional, Hepatocyte; set-up: scale not given: the % may be the effect or the level left; details: time 90 min, 1.5 h
[12] = Half life in Sprague-Dawley rat blood at 10 mg/kg, po by quantitative whole-body autoradiography; assay type: ADME, organism-based; details: in vivo
[13] = Reduction of propionyl-CoA in human hepatocytes derived from propionic acidemia patient at 100 uM pretreated for 30 mins followed by 13C-isoleucine addition and measured after 1 hr by MS/MS analysis relative to control; assay type: functional, Hepatocyte; set-up: scale not given: the % may be the effect or the level left; details: time 90 min, 1.5 h
[14] = Cmax in CD1 mouse at 30 mg/kg, iv; assay type: ADME, organism-based; set-up: route intravenous, dose 30 mg/kg; details: in vivo
[15] = Stability in minipig hepatocytes assessed as unchanged compound at 50 uM measured after 4 hrs; assay type: ADME, cell-based, Sus scrofa domesticus, Hepatocyte; details: pig, read-out: Stabilty
[16] = test system: Hepatocyte; assay: Cytotoxicity against rat hepatocytes assessed as reduction in cell viability using radiolabeled compound; assay type: cell-based
[17] = target: ATP-dependent translocase ABCB1 (Homo sapiens, UniProt P08183); assay: Inhibition of human MDR1 assessed as reduction in NMQ transport at 24000 uM relative to control
[18] = Drug metabolism in Gottingen minipig urine assessed as HST5040-glucuronide metabolite formation at 10 mg/kg administered as single dose by LC/MS analysis; assay type: ADME, organism-based, Sus scrofa domesticus; details: pig, in vivo
[19] = Reduction of acetyl carnitine in human hepatocytes derived from propionic acidemia patient pretreated for 30 mins followed by 13C-isoleucine addition and measured after 1 hr by MS/MS analysis; assay type: functional, cell-based; details: hepatocyte
[20] = Tmax in CD1 mouse at 300 mg/kg, po; assay type: ADME, organism-based; details: in vivo

Chain of ATP-dependent translocase ABCB1 (P08183 whole entry): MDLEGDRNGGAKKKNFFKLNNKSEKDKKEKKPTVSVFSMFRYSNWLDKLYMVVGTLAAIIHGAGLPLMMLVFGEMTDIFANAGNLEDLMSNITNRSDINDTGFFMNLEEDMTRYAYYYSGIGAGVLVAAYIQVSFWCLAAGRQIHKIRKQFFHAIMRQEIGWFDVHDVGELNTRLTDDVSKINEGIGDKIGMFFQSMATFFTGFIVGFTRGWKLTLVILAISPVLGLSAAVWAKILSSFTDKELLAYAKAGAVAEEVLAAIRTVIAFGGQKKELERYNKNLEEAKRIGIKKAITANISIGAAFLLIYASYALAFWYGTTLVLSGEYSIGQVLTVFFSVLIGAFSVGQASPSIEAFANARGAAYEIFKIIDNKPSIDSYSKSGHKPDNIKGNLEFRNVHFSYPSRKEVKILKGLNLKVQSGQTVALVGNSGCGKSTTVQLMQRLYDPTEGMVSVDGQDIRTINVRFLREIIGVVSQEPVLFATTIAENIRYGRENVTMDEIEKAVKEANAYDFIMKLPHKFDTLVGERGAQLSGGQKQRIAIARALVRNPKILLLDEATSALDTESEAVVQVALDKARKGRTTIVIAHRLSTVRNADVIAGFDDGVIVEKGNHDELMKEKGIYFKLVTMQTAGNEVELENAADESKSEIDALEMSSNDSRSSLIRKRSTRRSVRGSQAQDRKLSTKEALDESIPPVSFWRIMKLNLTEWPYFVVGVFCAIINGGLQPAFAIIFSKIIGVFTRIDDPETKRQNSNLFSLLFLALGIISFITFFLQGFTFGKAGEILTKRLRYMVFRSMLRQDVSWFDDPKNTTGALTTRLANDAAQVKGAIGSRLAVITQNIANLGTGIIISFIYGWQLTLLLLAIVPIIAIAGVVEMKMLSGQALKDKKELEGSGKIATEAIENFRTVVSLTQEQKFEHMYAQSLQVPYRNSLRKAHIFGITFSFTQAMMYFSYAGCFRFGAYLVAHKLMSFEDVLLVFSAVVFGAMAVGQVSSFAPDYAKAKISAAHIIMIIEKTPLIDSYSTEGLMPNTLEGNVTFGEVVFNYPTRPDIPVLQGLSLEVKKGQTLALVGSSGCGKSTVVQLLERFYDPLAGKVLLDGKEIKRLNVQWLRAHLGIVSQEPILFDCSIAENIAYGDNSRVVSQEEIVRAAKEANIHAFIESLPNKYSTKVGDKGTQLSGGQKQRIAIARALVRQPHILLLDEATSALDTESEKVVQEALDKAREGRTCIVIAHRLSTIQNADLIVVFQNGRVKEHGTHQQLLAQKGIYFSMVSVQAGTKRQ
Chain of Solute carrier family 22 member 2 (Homo sapiens) (O15244 whole entry, looked up): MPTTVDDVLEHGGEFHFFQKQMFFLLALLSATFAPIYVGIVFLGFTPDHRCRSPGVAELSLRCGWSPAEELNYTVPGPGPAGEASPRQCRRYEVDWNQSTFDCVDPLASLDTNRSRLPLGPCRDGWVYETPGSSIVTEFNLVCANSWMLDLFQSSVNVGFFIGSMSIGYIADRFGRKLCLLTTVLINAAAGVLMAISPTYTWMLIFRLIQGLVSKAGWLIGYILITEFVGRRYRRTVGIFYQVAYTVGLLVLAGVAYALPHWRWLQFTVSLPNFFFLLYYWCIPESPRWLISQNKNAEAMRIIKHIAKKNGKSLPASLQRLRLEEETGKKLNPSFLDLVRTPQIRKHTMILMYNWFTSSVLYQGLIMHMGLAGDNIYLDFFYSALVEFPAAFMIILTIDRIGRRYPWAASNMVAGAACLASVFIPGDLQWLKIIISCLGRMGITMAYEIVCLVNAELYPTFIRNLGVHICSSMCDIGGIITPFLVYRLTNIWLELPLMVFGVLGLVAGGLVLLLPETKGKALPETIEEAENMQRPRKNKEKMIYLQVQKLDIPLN

- Drug metabolism [1]: Metabolite_Detected
- Drug metabolism [2]: Metabolite_Notdetected
- IC50 [3]: 3860 µM
- IC50 [6]: > 10000 µM
- inhibition at 14900 µM [7]: 31.5%
- solubility [8]: > 50 mg/mL
- inhibition [9]: inactive
- bioavailability [10]: 53.4%
- t1/2 [12]: 150 min
- Cmax [14]: 59.4 µg/mL
- remaining at 4 h, 50 µM [15]: 86%
- inhibition (INH) [17]: Not Active
- Drug metabolism [18]: Metabolite_Detected
- Tmax [20]: 30 min
SMILES: CCC(C)(C)C(=O)O [DIMEBUTIC ACID]
- Activity [4]: -78.6%
- EC50 [5]: 8.3 µM
- Activity [11]: 44.6%
- Activity [13]: 87%
- Activity [16]: Non-Toxic
- EC50 [19]: 4.8 µM
